Inconclusive results are not listed. Calls of active or inactive are those of the source.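 How the source made its calls: active means compound lowering the normal-ribosome reporter at least twice as much as the humanized-ribosome reporter, growth loss under a set limit; inconclusive means no clear call, values can overlap the other calls; inactive means the rest.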
Tested on: E. coli WT-GFP vs G2058-humanized RFP, fluorescence, 24 h
Assay: growth inhibition of wild-type GFP E. coli versus G2058-humanized strain, dose response, G2058 mutant RFP vs wild-type GFP, cherry-pick, two tests (AID 1035470)
[1] = E. coli WT-GFP vs G2058-humanized RFP mixed culture, total growth OD600, 24 h
[2] = measured here: G2058 humanized mutant RFP growth

SMILES	AC50	AC50 [1] [µM]	AC50 [2] [µM]
CCn1c(-c2ccccc2Cl)nn(CC(=O)Nc2ccccc2OC)c1=S	> 100 µM (inactive)	–	–
COc1cc(NC(=O)COC(=O)CC(C)(C)C)c(C)cc1[N+](=O)[O-]	> 100 µM (inactive)	> 100	–
Nc1nc(Nc2ccccc2F)nc(N2CCOCC2)c1[N+](=O)[O-]	> 100 µM (inactive)	–	–
O=C1CSC(c2cccnc2)N1Cc1ccc(Cl)c(Cl)c1 (stereo unspecified)	–	> 100	–
COc1ccc(OC)c(-c2csc(NC(=O)C3COc4ccccc4O3)n2)c1 (stereo unspecified)	> 100 µM (inactive)	> 100	–
CC1Cc2cc(S(=O)(=O)N3CCN(c4cccc(Cl)c4)CC3)ccc2N1C(=O)C1CC1 (stereo unspecified)	–	> 100	–
CCOc1ccc(CN(C)C(=O)c2ccc(NS(=O)(=O)c3ccc4[nH]c(=O)[nH]c4c3)cc2)cc1	–	> 100	–
CCc1nn2cc(C(=O)c3cc(Cl)ccc3O)cnc2c1-c1ccc(F)cc1	> 100 µM (inactive)	–	–
O=[N+]([O-])c1ccccc1Oc1ccc(Cl)c2cccnc12	> 100 µM (inactive)	–	–
C=CCn1c(SCc2n[nH]c(=S)n2-c2ccccc2)nnc1-c1ccccc1	> 100 µM (inactive)	> 100	–
CCCCn1c(=O)[nH]c(=O)c2c1nc(-c1ccccc1F)n2Cc1ccccc1	> 100 µM (inactive)	> 100	–
COc1ccc(S(=O)(=O)N2CCOc3ccccc32)cc1	–	> 100	> 100
COc1ccc(C2CC(=O)Oc3cc(C)cc(C)c32)cc1 (stereo unspecified)	> 100 µM (inactive)	–	–
CCCc1nc2oc3c(NCCCN(C)C)ncnc3c2c2c1CCCC2	> 100 µM (inactive)	> 100	–
Cc1ccccc1NS(=O)(=O)c1cc(C(=O)NCCC2=CCCCC2)ccc1C	> 100 µM (inactive)	–	–
COc1cc(C2CC(=O)Oc3cc(C)cc(C)c32)cc(OC)c1OC (stereo unspecified)	> 100 µM (inactive)	–	–
O=C(CC1C(=O)N(c2ccc(Cl)cc2)C(=S)N1CCc1ccncc1)Nc1ccc(F)cc1 (stereo unspecified)	> 100 µM (inactive)	41.8	–
CC(C)(Nc1ccccc1)C(=O)c1ccccc1	–	> 100	–
CCN(CC)S(=O)(=O)c1ccc(N2CCCC2)c(NC(=O)c2ccccc2OC)c1	> 100 µM (inactive)	–	–
Cc1cc(C(=O)Nc2cccc3c2O[C@H](CN(C)S(=O)(=O)c2ccc(Cl)cc2)[C@H](C)CN([C@H](C)CO)C3=O)n(C)n1	> 100 µM (inactive)	–	32.9
O=C(Nc1cccc(Cl)c1)N1C[C@@H]2[C@H](c3ccccc31)[C@@H](CO)N2C(=O)c1cccnc1	–	–	> 100
C[C@@H]1CCCCO[C@@H](CN(C)C)[C@H](C)CN([C@@H](C)CO)C(=O)c2cc(NC(=O)Nc3cccc4ccccc34)ccc2O1	–	> 100	–
CCN(CC)S(=O)(=O)c1cc(NC(=O)C(C)N2CCN(Cc3ccc4c(c3)OCO4)CC2)ccc1C (stereo unspecified)	> 100 µM (inactive)	–	> 100
O=C(Nc1ccc2nc(-c3cccnc3)[nH]c2c1)c1ccco1	> 100 µM (inactive)	–	> 100

SMILES	AC50	AC50 [1] [µM]	AC50 [2] [µM]
CC(=O)OC(COc1cccc(C)c1)Cn1cnc2ccccc21 (stereo unspecified)	> 100 µM (inactive)	> 100	–
O=C(CN(c1ccc(F)cc1)S(=O)(=O)c1ccccc1)Nc1ccccc1C(=O)O	–	> 100	–
CCCN1C(=O)C(O)(c2c(C)[nH]c3ccccc23)c2ccccc21 (stereo unspecified)	–	> 100	–
O=C(Nc1ccc(C(=O)Nc2ccccc2Cl)cc1)c1cccnc1	> 100 µM (inactive)	–	8.17
C=CCN(CC=C)C(=O)c1ccc2nc(Cc3ccc(OC)c(OC)c3)oc2c1	> 100 µM (inactive)	–	–
O=C(Nc1cscc1S(=O)(=O)c1ccccc1)c1ccccc1Cl	> 100 µM (inactive)	–	–
O=C(C[n+]1ccc(Cc2ccccc2)cc1)Nc1ccc([N+](=O)[O-])cc1Cl	–	–	> 100
COc1ccc(CNC(=O)c2nc(S(=O)(=O)Cc3ccccc3)ncc2Cl)cc1	> 100 µM (inactive)	–	–
Cc1ccc(-c2c[n+](CC(=O)Nc3ccccc3)c3n2CCC3)cc1	–	–	> 100
O=C(Nc1cccnc1)c1ccc([N+](=O)[O-])o1	> 100 µM (inactive)	> 100	–
C=CCn1c(C)cc(C(=O)COC(=O)CNC(=O)c2ccccc2)c1C	> 100 µM (inactive)	–	–
Cc1ccc(C)c(N2CCN(C(=O)CCS(=O)(=O)c3ccc4c(c3)oc(=O)n4C)CC2)c1	–	> 100	–
O=c1[nH]c2cc([N+](=O)[O-])ccc2c2ccccc12	> 100 µM (inactive)	> 100	> 100
COc1ccc2nc(SCC(=O)Nc3ccccc3)[nH]c2c1	> 100 µM (inactive)	–	–
COCCn1c(SCC(=O)Nc2ccccc2OC)nc2ccccc21	> 100 µM (inactive)	–	–
Oc1ccc(-c2csc(Nc3ncccn3)n2)cc1	–	> 100	> 100
COC(=O)c1ccc(CSc2nc3ccccc3s2)o1	–	> 100	–
COC(=O)c1cccc(CN2C(=O)SC(Nc3ccc(C)cc3)C2=O)c1 (stereo unspecified)	> 100 µM (inactive)	–	–
CC(C)(C)c1ccc(S(=O)(=O)NCc2ccc(C(=O)NCc3ccccn3)cc2)cc1	> 100 µM (inactive)	> 100	–
O=C(CSc1nnc(-c2ccccc2F)n1C1CC1)Nc1cccnc1Cl	> 100 µM (inactive)	–	–
COC(=O)CC1COc2ccccc2N1C(=O)c1ccc(Br)cc1 (stereo unspecified)	> 100 µM (inactive)	> 100	–
Cc1cc(OCC(=O)N(Cc2ccco2)C2CCS(=O)(=O)C2)ccc1Cl (stereo unspecified)	> 100 µM (inactive)	> 100	–
COc1cccc(NC(=O)COC(=O)Cc2ccccc2[N+](=O)[O-])c1	> 100 µM (inactive)	> 100	–
O=C(NCc1ccc2c(c1)OCO2)c1sccc1Br	> 100 µM (inactive)	> 100	–

SMILES	AC50	AC50 [1] [µM]	AC50 [2] [µM]
COc1ccccc1-c1cc2nc(NCCc3ccncc3)ccn2n1	> 100 µM (inactive)	> 100	–
O=c1[nH]c(C2CCN(S(=O)(=O)c3ccc4c(c3)OCCO4)CC2)nc2c1nnn2Cc1ccccc1F	> 100 µM (inactive)	> 100	–
O=C(O)CCn1c(SCc2cccc3ccccc23)nc2ccccc21	> 100 µM (inactive)	> 100	–
O=C(COC(=O)C1CC1)Nc1nc(-c2ccc(F)c(F)c2)cs1	–	> 100	–
O=C(O)c1nn2c(C(F)(F)F)cc(-c3cccs3)nc2c1Cl	> 100 µM (inactive)	–	–
COc1ccc(CC(=O)NCc2csc(-c3cccs3)n2)cc1OC	> 100 µM (inactive)	–	–
CCOc1ccc2nc(NC(=O)CSc3nc(SC)ns3)sc2c1	> 100 µM (inactive)	> 100	–
O=C(c1ccc(N2CCCCC2)c([N+](=O)[O-])c1)N1CCN(c2ccccn2)CC1	–	> 100	–
COC(=O)CNC(=O)COC(=O)c1ccc(Cl)nc1	–	> 100	–
Cc1cc(-c2ccc(C)c(S(=O)(=O)NCC3CCN(Cc4ccccc4F)CC3)c2)on1	> 100 µM (inactive)	> 100	–
CCOc1ccc(S(=O)(=O)N(C)c2ccc(OCC(=O)NCc3cccnc3)cc2)cc1	> 100 µM (inactive)	> 100	–
CC1CCCCN1CC(O)COCCC12CC3CC(CC(C3)C1)C2 (stereo unspecified)	> 100 µM (inactive)	> 100	–
CCOC(=O)c1ccc(CC(=O)c2oc3cc(O)ccc3c2C)o1	> 100 µM (inactive)	–	–
CCCN(Cc1ccco1)S(=O)(=O)c1ccc(OC)c(OC)c1	> 100 µM (inactive)	> 100	> 100
COC(=O)c1ccc2nc(-c3cccc(Br)c3)c(Cc3ccsc3)n2c1	> 100 µM (inactive)	–	> 100
Cn1nc(C(=O)Nc2cccc(S(=O)(=O)N3CCCCC3)c2)c2ccccc2c1=O	> 100 µM (inactive)	> 100	–
CC(=O)c1ccc(OCC(=O)Nc2ccc3c(c2)CCC3)cc1	> 100 µM (inactive)	> 100	–
CCCNc1ccc(C(=O)OCC)cc1[N+](=O)[O-]	> 100 µM (inactive)	> 100	–
O=C(CCNC(=O)c1ccco1)Nc1cccc(Br)c1	–	> 100	–
COc1ccc(C#Cc2ccc([C@H]3[C@@H](CO)N4CCCCN(C(=O)Nc5cccc(F)c5)C[C@H]34)cc2)cc1	–	> 100	–
CCOc1ccccc1OCCCC(=O)N1CCN(S(=O)(=O)c2cc(F)ccc2F)CC1	> 100 µM (inactive)	–	–
O=C(COC(=O)C1CC2C=CC1C2)Nc1ccc([N+](=O)[O-])cc1 (stereo unspecified)	–	> 100	> 100
C=C(C)Cn1c(=O)c2c(nc3n2CC(C)CN3Cc2ccccc2)n(C)c1=O (stereo unspecified)	> 100 µM (inactive)	–	–

From PubChem BioAssay AID1035470 (Broad Institute, 2014)
